Source: patent publication US9096591B2, “Tetracyclic compounds” (Medivation Technologies, Inc., priority 2007, dated 2015)

Columns and labels:
Details in all cases: percent inhibition of specific binding
[1] = target: T1, human recombinant serotonin (5-Hydroxytryptamine) 5-HT2C receptor (Homo sapiens, UniProt P28335); assay: Serotonin 5-HT2C radioligand binding ([3H]Mesulergine); design: Inhibition of ligand binding, Ser. 5-HT2C: concentration or dose not given beside the values
T1 construct: expressed in transfected cells; host or cells: CHO-K1 cells
T1 sequence (P28335 33-458): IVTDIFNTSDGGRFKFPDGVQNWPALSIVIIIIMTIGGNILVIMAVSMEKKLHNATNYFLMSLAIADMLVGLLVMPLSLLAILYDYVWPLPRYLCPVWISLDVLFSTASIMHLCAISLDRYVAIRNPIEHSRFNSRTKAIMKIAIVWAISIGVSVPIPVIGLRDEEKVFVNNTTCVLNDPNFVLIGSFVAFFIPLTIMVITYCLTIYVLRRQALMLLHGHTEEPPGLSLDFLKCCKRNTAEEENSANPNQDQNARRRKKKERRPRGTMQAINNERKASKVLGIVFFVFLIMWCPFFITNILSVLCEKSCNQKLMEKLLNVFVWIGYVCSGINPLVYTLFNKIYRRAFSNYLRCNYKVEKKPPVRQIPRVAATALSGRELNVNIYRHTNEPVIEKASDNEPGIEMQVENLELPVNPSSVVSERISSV
Experimental: (§1) Compounds of the invention were incubated with 1 nM [^3H]Mesulergine for 60 minutes at 25° C. Non-specific binding was estimated in the presence of 1 μM Mianserin. Receptor proteins were filtered and washed, the filters were then counted to determine [^3H]Mesulergine specifically bound. […] Biochemical assay results are presented as the percent inhibition of specific binding in Table 6.

[2] = target: T2, human recombinant serotonin (5-Hydroxytryptamine) 5-HT6 receptor (Homo sapiens, UniProt P50406); assay: Serotonin 5-HT6 radioligand binding ([3H]LSD); design: Inhibition of ligand binding, Ser. 5-HT6: concentration or dose not given beside the values
T2 construct: expressed in transfected cells; host or cells: human HeLa cells
T2 sequence (P50406 whole entry): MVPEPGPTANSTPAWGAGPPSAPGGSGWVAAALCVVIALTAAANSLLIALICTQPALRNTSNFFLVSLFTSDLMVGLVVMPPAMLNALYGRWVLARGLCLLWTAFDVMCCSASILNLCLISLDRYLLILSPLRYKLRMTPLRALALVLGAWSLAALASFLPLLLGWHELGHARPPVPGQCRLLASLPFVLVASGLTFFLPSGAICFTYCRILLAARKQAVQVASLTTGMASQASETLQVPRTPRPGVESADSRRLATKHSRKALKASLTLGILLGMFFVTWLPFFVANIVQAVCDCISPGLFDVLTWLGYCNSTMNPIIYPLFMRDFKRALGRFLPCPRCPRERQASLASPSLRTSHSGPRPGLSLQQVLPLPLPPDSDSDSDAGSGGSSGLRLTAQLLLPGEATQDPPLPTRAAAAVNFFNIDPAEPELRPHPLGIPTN
From the text: Receptor proteins were filtered and washed, the filters were then counted to determine [3H]LSD specifically bound. […] Biochemical assay results are presented as the percent inhibition of specific binding in Table 6.

[3] = target: T3, human recombinant dopamine D2L receptor (Homo sapiens, UniProt P14416); assay: Dopamine D2L radioligand binding ([3H]Spiperone)
T3 construct: expressed in transfected cells; host or cells: CHO cells
T3 sequence (P14416 whole entry): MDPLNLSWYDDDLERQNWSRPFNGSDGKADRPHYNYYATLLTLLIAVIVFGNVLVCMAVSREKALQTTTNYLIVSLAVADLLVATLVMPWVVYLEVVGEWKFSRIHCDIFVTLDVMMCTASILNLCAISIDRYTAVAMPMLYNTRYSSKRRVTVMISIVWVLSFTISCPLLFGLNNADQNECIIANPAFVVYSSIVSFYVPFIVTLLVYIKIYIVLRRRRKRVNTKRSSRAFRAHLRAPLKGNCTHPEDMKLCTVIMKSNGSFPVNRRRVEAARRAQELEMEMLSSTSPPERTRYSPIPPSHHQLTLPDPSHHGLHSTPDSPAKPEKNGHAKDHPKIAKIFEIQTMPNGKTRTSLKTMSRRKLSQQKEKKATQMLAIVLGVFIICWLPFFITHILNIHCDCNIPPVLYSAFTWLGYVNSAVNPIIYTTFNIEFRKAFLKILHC
Experimental: Non-specific binding was estimated in the presence of 10 μM Haloperidol. Receptor proteins were filtered and washed, the filters were then counted to determine [^3H]Spiperone specifically bound. […] Biochemical assay results are presented as the percent inhibition of specific binding in Table 6.

[4] = target: T4, human recombinant serotonin (5-Hydroxytryptamine) 5-HT2A receptor (Homo sapiens, UniProt P28223); assay: Serotonin 5-HT2A radioligand binding ([3H]Ketanserin)
T4 construct: expressed in transfected cells; host or cells: CHO-K1 cells
T4 sequence (P28223 whole entry): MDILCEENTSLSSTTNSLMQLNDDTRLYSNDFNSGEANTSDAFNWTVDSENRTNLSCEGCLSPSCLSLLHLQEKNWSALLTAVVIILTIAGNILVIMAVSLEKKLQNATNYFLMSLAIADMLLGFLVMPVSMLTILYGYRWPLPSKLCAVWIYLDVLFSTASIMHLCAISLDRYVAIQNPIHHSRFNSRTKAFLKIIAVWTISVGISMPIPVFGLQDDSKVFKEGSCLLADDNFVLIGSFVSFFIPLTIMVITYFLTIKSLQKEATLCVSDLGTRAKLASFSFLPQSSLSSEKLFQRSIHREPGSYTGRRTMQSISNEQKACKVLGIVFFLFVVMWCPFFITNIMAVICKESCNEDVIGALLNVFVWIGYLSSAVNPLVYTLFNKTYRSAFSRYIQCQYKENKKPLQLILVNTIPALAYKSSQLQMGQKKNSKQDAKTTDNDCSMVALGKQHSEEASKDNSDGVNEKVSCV
Experimental: as §1, with “with 0.5” for “with 1”, “nM [^3H]Ketanserin” for “nM [^3H]Mesulergine”, “determine [^3H]Ketanserin” for “determine [^3H]Mesulergine”

[5] = target: T5, human recombinant adrenergic α2A receptor (Homo sapiens, UniProt P08913); assay: Adrenergic α2A radioligand binding ([3H]MK-912); design: Inhibition of ligand binding, Adren. alpha2A: concentration or dose not given beside the values
T5 construct: expressed in transfected cells; host or cells: insect Sf9 cells
T5 sequence (P08913 1-465): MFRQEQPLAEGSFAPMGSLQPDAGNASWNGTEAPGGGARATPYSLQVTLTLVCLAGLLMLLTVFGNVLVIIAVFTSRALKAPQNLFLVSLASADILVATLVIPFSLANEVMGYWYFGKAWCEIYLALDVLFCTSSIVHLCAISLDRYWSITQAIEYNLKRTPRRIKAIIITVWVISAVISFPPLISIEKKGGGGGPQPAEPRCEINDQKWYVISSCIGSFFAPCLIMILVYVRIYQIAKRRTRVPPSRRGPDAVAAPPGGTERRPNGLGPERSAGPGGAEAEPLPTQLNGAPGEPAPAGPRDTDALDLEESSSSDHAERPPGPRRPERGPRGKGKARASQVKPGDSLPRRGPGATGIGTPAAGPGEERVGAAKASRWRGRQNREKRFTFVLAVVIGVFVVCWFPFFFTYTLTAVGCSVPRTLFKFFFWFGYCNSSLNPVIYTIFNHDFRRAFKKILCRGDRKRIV
Procedure, shortened: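 Membranes from Sf9 cells expressing the receptor were incubated with 1 nM [3H]MK-912 for 60 minutes at 25° C in 50 mM Tris-HCl pH 7.4, 12.5 mM MgCl2, 2 mM EDTA. 10 μM WB-4101 defined non-specific binding. Values are percent inhibition of specific bound radioactivity after filtration.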

Row | SMILES | Inhibition of ligand binding, Ser. 5-HT2C [1] | Inhibition of ligand binding, Ser. 5-HT6 [2] | Inhibition of ligand binding, Dop. D2L [3] | Inhibition of ligand binding, Ser. 5-HT2A [4] | Inhibition of ligand binding, Adren. alpha2A [5]
1 | CN1CCc2c(c3cc(Cl)ccc3n2CCc2cncc(Cl)c2)C1 [Compound 444, 8-chloro-5-(2-(5-chloropyridin-3-yl)ethyl)-2,3,4,5-tetrahydro-2-methyl-1H-pyrido[4,3-b]indole] | 95% | 96% | 32% | 95% | 89%
2 | Cc1ccc2c(c1)c1c(n2CC(C)c2ccc(F)cc2)CCN(C)C1 (centres unmarked) [Compound 456, 5-(2-(4-fluorophenyl)propyl)-2,3,4,5-tetrahydro-2,8-dimethyl-1H-pyrido[4,3-b]indole] | 99% | 98% | 76% | 104% | 106%
3 | CC(C)N1CCN(C(=O)Cn2c3c(c4cc(Cl)ccc42)CN(C)CC3)CC1 [Compound 248] | 59% | 67% | 2% |  | 27%
4 | CN1CCc2c(c3cc(F)ccc3n2CCc2ccc(F)cc2)C1 [Compound 253] | 93% | 105% | 96% |  | 93%
5 | CN1CCc2c(c3cc(F)ccc3n2CCc2ccc(Cl)cc2)C1 [Compound 249] | 98% | 101% | 64% |  | 97%
6 | Cc1ccc2c(c1)c1c(n2CCC(=O)N2CCC(NC(=O)OC(C)(C)C)CC2)CCN(C)C1 [Compound 393, tert-butyl 1-(3-(1,2,3,4-tetrahydro-2,8-dimethylpyrido[4,3-b]indol-5-yl)propanoyl)piperidin-4-ylcarbamate] | 26% | 3% |  | 19% | 98%
7 | Cc1ccc(CCn2c3c(c4cc(C(F)(F)F)ccc42)CN(C)CC3)cn1 [Compound 53] | 12% | 18% |  | −1% | 18%
8 | CN1CCc2c(c3cc(Cl)ccc3n2CCC2CCCCC2)C1 [Compound 164, 8-chloro-5-(2-cyclohexylethyl)-2,3,4,5-tetrahydro-2-methyl-1H-pyrido[4,3-b]indole] | 95% | 99% |  | 91% | 95%
9 | Cc1ccc2c(c1)c1c(n2CCN2CCCCC2)CCN(C)C1 [Compound 224, 2,3,4,5-tetrahydro-2,8-dimethyl-5-(2-(piperidin-1-yl)ethyl)-1H-pyrido[4,3-b]indole] | 74% | 43% |  | 32% | 57%
10 | Cc1ccc2c(c1)c1c(n2CCc2ccc(C)nc2)CCN(C2CC2)C1 [Compound 51] | 2% | 6% |  | 0% | 26%
11 | CN1CCc2c(c3cc(Cl)ccc3n2CCc2ccc(F)cc2)C1 [Compound 162, 5-(4-fluorophenethyl)-8-chloro-2,3,4,5-tetrahydro-2-methyl-1H-pyrido[4,3-b]indole] | 94% | 99% |  | 98% | 99%
12 | Cc1ccc2c(c1)c1c(n2CC(=O)N2CCC(C)CC2)CCN(C)C1 [Compound 251] | 23% | 7% | −7% |  | 2%
13 | Cc1ccc(CCn2c3c(c4cc(Cl)ccc42)CN(C)CC3)cc1 [Compound 43] | 100% | 102% |  | 99% | 100%
14 | CN1CCc2c(c3cc(Cl)ccc3n2CCN2CCCCC2)C1 [Compound 189] | 85% | 66% | 0% |  | 76%
15 | Cc1ccc(CCn2c3c(c4cc(C(=O)O)ccc42)CN(C)CC3)cn1 [Compound 256, 2-Methyl-5-(2-(6-methylpyridin-3-yl)ethyl)-2,3,4,5-tetrahydro-1H-pyrido[4,3-b]indole-8-carboxylic acid] | 0% | 2% |  | 2% | −7%
16 | Cc1ccc2c(c1)c1c(n2CCc2ccc(C)nc2)CCN(C)C1=O [Compound 216] | −11% | −8% |  | 12% | 15%
17 | Cc1ccc2c(c1)c1c(n2CCc2ccccc2)CCN(C(=O)OCC(Cl)(Cl)Cl)C1 [Compound 227, 2,2,2-trichloroethyl 3,4-dihydro-8-methyl-5-phenethyl-1H-pyrido[4,3-b]indole-2(5H)-carboxylate] | 4% | 9% |  | −2% | 0%
18 | Cc1ccc2c(c1)c1c(n2CC(=O)N2CCCC2)CCN(C)C1 [Compound 257, 2-(1,2,3,4-tetrahydro-2,8-dimethylpyrido[4,3-b]indol-5-yl)-1-(pyrrolidin-1-yl)ethanone] | 47% | 2% | −7% |  | −4%
19 | CN1CCc2c(c3c(Cl)cccc3n2CCC2CCCCC2)C1 [Compound 187, 9-chloro-5-(2-cyclohexylethyl)-2,3,4,5-tetrahydro-2-methyl-1H-pyrido[4,3-b]indole] | 77% | 53% |  | 84% | 90%
20 | CN1CCc2c(c3cc(C(F)(F)F)ccc3n2CCc2ccccc2)C1 [Compound 80, 8-(trifluoromethyl)-2,3,4,5-tetrahydro-2-methyl-5-phenethyl-1H-pyrido[4,3-b]indole] | 90% | 101% |  | 88% | 98%
21 | CN1CCc2c(c3cc(Cl)ccc3n2CCN2CCOCC2)C1 [Compound 186, 8-chloro-2,3,4,5-tetrahydro-2-methyl-5-(2-morpholinoethyl)-1H-pyrido[4,3-b]indole] | 89% | 83% |  | 84% | 51%
